This is an account of results in PMC5678291, “Molecular Mechanism of Enzymatic Chlorite Detoxification: Insights from Structural and Kinetic Studies” (ACS Catalysis, 2017).

A value given as a limit tells only on which side of the number the result lay.

Data set [1] has as its target T1, CCld (Cyanothece sp. PCC 7425, UniProt B8HNS6).
T1 construct: gene Cyan7425_1434
The experiment in a line: UV-vis titration. It is filed as binding. To be noted: read-out: dissociation constant.

The target of data set [2] is Arg127 (UniProt position 127, LPGVARRLLHC). The experiment in a line: neutron. To be noted: 293 K; 0.15 M MgSO4; 0.1 M glycine-NaOH pH 9.0, 0.15 M MgSO4, 30% PEG 3350, 5% glycerol; Ferric CCld crystal, hydroxide (OD-) bound to the haem iron, Arg127 in the 'out' conformation.

T1 sequence (B8HNS6 entry or part of it): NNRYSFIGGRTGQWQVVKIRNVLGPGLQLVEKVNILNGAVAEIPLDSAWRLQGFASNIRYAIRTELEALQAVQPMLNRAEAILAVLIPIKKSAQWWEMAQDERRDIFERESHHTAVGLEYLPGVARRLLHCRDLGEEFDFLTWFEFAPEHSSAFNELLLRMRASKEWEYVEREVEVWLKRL

As for `F` [F^–, fluoride], the Kd in data set [1] is 12.6 mM.
On to “Chlorite dismutase (CCld) (Cyanothece sp. PCC7425)”, for which, in data set [2], the pKa is on record as >9.0 (protonated at pH 9.0).
For the compound `N#CS` [SCN^–, thiocyanate], in data set [1], the Kd worked out at 0.074 mM.
